# Source: paper PMC6125430, “Structural Analysis of Redox-sensing Transcriptional Repressor Rex from Thermotoga maritima” (Scientific Reports, 2018)
# How the values were obtained:
# TmRex = biological target: T1, TmRex (Thermotoga maritima, UniProt Q9WY16); test: X-ray crystallography of the complex; format: binding; conditions: 1:1 per C-terminal domain
# T1 construct: gene rex1; full-length gene (pET28b NdeI/XhoI), N-terminal His6 tag (tag removal told only for SeMet protein), E. coli BL21(DE3) Star pLysS; homodimer; primers encode N-terminal MAEKIPK
# [1] = biological target: the molecule itself; test: crystal structure; apo TmRex, native protein, 2.0 Å; sitting-drop vapour diffusion at 296 K, 200 mM potassium chloride, 20% (w/v) PEG 3,350; four subunits (two homodimers) in the asymmetric unit
molecule,measurement,setting,value
NC(=O)C1=CN([C@@H]2O[C@H](COP(=O)(O)OP(=O)(O)OC[C@H]3O[C@@H](n4cnc5c(N)ncnc54)[C@H](O)[C@@H]3O)[C@@H](O)[C@H]2O)C=CC1 [NADH],X-ray crystallography of the complex,"TmRex; co-crystallization with 1 mM NADH, 2.45 A, closed form",NADH-bound TmRex crystals were grown by co-crystallization
NC(=O)c1ccc[n+]([C@@H]2O[C@H](COP(=O)(O)OP(=O)(O)OC[C@H]3O[C@@H](n4cnc5c(N)ncnc54)[C@H](O)[C@@H]3O)[C@@H](O)[C@H]2O)c1 [NAD^+],X-ray crystallography of the complex,"TmRex; apo crystals soaked with 1 mM NAD+ for 10 h, 2.2 A, open form",The structure of NAD^+-bound TmRex was refined with crystallographic Rwork and Rfree values
"Redox-sensing transcriptional repressor Rex from Thermotoga maritima (natural protein, UniProt Q9WY16 1-208, looked up, Rex (TM0169) of Thermotoga maritima, rex gene amplified from genomic DNA with primers from the ATG start codon to the stop codon; residues 1-208 (N-terminal domain 1-77, linker loop 78-83, C-terminal domain 84-208); Cloned into pET28b(+) with NdeI and XhoI; for the native protein in the deposited structures no removal is told; also called TmRex; TM0169; source: E. coli BL21 (DE3) star pLysS, …) MAEKIPKPVSKRLVSYYMCLERLLDEGVEVVSSEELARRLDLKASQIRKDLSYFGEFGKRGVGYNVEHLYDAIGEILGVKKEWKLVVVGAGNIGRAVANYTVMKEKGFRIIGIFDSDPSKIGKEAAPGLTVSDVSELEKFVEEHGVEIGVIAVPAEHAQEIAERLEKAGIKGILNFAPVKIKVSVPVENIDITASLRVLTFEIVRRNS",binding result,[1],binds
